Among the data in publication PMC7726757 (ACS Omega, 2020) are Kd, TΔS and ΔH values, retold here.

Holding throughout (experiment): Isothermal titration calorimetry
(In ITC the heat of successive injections is recorded.)

Experiment [1] addresses T1, Pm-NanK (Pasteurella multocida, UniProt Q9CKB3, M259T).
T1 sequence (Q9CKB3 1-297 M259T): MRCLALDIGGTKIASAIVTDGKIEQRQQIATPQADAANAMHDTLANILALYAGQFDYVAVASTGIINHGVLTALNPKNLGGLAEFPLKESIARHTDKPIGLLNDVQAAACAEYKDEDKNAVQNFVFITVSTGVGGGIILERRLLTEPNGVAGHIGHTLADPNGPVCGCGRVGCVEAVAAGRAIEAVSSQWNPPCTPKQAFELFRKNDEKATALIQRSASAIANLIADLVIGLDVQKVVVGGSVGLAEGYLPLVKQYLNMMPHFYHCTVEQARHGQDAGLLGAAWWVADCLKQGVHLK
The experiment is classed as binding, P. multocida.

Experiment [2] addresses T2, Vc-NanK (Vibrio cholerae serotype O1, UniProt Q9KR61).
T2 sequence (Q9KR61 1-287): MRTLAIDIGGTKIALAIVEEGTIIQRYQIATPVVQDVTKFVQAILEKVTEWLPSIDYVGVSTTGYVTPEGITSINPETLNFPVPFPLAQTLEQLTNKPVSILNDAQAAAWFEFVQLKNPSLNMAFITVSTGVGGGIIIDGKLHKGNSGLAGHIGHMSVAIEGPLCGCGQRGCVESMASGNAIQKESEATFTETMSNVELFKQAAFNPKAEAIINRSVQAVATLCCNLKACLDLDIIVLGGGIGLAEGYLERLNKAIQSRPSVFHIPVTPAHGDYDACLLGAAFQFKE
The experiment is classed as binding, V. cholera.

The target in experiment [3] is T3, Hi-NanK (Haemophilus influenzae, UniProt Q4QP43).
T3 sequence (Q4QP43 1-300): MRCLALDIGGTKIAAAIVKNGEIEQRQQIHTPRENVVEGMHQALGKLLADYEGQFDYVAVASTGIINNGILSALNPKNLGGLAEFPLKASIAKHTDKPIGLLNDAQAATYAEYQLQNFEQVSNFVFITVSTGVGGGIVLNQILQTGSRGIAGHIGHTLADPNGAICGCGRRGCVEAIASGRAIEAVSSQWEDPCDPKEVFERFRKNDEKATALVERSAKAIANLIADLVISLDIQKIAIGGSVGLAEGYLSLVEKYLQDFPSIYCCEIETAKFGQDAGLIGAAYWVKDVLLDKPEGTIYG
The class given is binding, H. influenzae.

For experiment [4], the target named is T4, Fn-NanK (Fusobacterium nucleatum, UniProt Q8RDN7).
T4 sequence (Q8RDN7 1-291): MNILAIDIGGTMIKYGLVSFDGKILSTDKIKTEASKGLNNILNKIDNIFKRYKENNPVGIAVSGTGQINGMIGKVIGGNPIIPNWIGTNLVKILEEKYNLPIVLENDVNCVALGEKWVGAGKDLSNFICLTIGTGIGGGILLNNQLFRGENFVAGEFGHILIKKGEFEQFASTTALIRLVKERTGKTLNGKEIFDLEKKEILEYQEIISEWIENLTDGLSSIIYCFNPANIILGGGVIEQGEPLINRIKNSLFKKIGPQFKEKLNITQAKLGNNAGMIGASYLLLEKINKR
The experiment is classed as binding, F. nucleatum. Conditions: Fn-NanK wild type.

[5] abbreviates: Hi-NanK wild type, ligand alone.
The mark [6] stands for this setting: Hi-NanK, in the presence of ManNAc.

Usually Kd stands for the free concentration of one partner at which half of the binding sites on the other are occupied at equilibrium, for simple one-to-one binding. On to `Nc1ncnc2c1ncn2[C@@H]1O[C@H](COP(=O)(O)OP(=O)(O)NP(=O)(O)O)[C@@H](O)[C@H]1O` [AMPPNP, adenylyl-imidodiphosphate], for which the Kd was 112 ± 14.5 µM in experiment [1] (in the presence of ManNAc); “no measurable binding” in experiment [1] (ligand alone); 44 ± 9.2 µM in experiment [2] (in the presence of ManNAc); “no measurable binding” in experiment [2] (ligand alone); 53 ± 6.4 µM in experiment [3] (setting [5]); 72 ± 12 µM in experiment [3] (setting [6]). For the same molecule, the Kd in experiment [4] (in the presence of ManNAc) was determined as 35 ± 1.12 µM; in experiment [4] (ligand alone), 61 ± 7.48 µM. For the same molecule, the TΔS in experiment [1] (in the presence of ManNAc) was 1.1 kcal/mol; in experiment [2] (in the presence of ManNAc) it was 3.814 kcal/mol; in experiment [3] (setting [5]), “–1.85 Kcal/mol”; in experiment [3] (setting [6]), 1.94 kcal/mol; in experiment [4] (in the presence of ManNAc), “–2.87 Kcal/mol”; in experiment [4] (ligand alone), 2.13 kcal/mol. Also, the ΔH result is “–4.3 ± 0.35 Kcal/mol” in experiment [1] (in the presence of ManNAc); “–2.1 ± 0.482 Kcal/mol” in experiment [2] (in the presence of ManNAc); “–7.7 ± 2.44 Kcal/mol” in experiment [3] (setting [5]); “–3.7 ± 0.68 Kcal/mol” in experiment [3] (setting [6]); “–8.94 ± 0.18 Kcal/mol” in experiment [4] (in the presence of ManNAc).
